Data taken from patent US7893266B2, “Detection of cancer cells in vitro using sigma-2 receptor ligands as radiotracers” (Washington University, priority 2003, dated 2011).

Tested on: EMT-6 mammary tumors
Test: Biodistribution in EMT-6 BALB/C mice
Type: in vivo
Experimental: As used herein, the term “tumor:background ratio” (i.e., tumor:fat ratio, tumor:muscle ratio, tumor:lung ratio, tumor:blood ratio) refers to the % injected dose/g tissue of the radiotracer in the tumor divided by the % injected dose/g […] in the background tissue (i.e., fat, muscle, lung, blood).
B. Biodistribution Studies of ^11C analogs in Tumor-Bearing Mice. Biodistribution studies were conducted in mature Balb/c mice that were implanted with EMT-6 mammary tumors identified herein as EMT-6 BALB/C mice to create laboratory tumor-bearing mice. The mice were implanted in the scapular region seven days prior to the study. Animals were injected with 100-150 μCi of the ^11C-labeled radiotracer and the animals were sacrificed at 5, 30, and 60 min post-i.v. injection of the radiotracer.
A series of biodistribution studies in tumor-bearing mice were also conducted with [^76Br]8, [^76Br]6, [^125I]8i, and [^125I]6i.

COc1cc2c(cc1OC)CN(CCCCNC(=O)c1cc(Br)cc(OC)c1O[11CH3])CC2 [[^11C]6]
ratio Tumor:blood (5 min): 0.40 ± 0.01
ratio Tumor:fat (5 min): 1.82 ± 0.45
ratio Tumor:heart (5 min): 0.80 ± 0.07
ratio Tumor:lung (5 min): 0.47 ± 0.04
ratio Tumor:muscle (5 min): 1.46 ± 0.19
ratio Tumor:blood (30 min): 0.94 ± 0.05
ratio Tumor:fat (30 min): 2.05 ± 0.57
ratio Tumor:heart (30 min): 1.36 ± 0.12
ratio Tumor:lung (30 min): 0.69 ± 0.08
ratio Tumor:muscle (30 min): 0.59 ± 0.05
ratio Tumor:blood (1 hour): 1.10 ± 0.11
ratio Tumor:fat (1 hour): 2.77 ± 0.82
ratio Tumor:heart (1 hour): 1.86 ± 0.64
ratio Tumor:lung (1 hour): 0.79 ± 0.30
ratio Tumor:muscle (1 hour): 1.84 ± 0.25
% ID per gram blood (5 min): 7.12 ± 1.01 % ID per gram
% ID per gram blood (30 min): 0.99 ± 0.15 % ID per gram
% ID per gram blood (1 hour): 0.45 ± 0.04 % ID per gram
% ID per gram brain (5 min): 0.33 ± 0.09 % ID per gram
% ID per gram brain (30 min): 0.10 ± 0.00 % ID per gram
% ID per gram brain (1 hour): 0.03 ± 0.00 % ID per gram
% ID per gram fat (5 min): 1.66 ± 0.41 % ID per gram
% ID per gram fat (30 min): 0.46 ± 0.19 % ID per gram
% ID per gram fat (1 hour): 0.20 ± 0.08 % ID per gram
% ID per gram heart (5 min): 3.54 ± 0.31 % ID per gram
% ID per gram heart (30 min): 0.68 ± 0.12 % ID per gram
% ID per gram heart (1 hour): 0.29 ± 0.10 % ID per gram
% ID per gram kidney (5 min): 19.48 ± 1.46 % ID per gram
% ID per gram kidney (30 min): 2.57 ± 0.78 % ID per gram
% ID per gram kidney (1 hour): 1.34 ± 0.19 % ID per gram
% ID per gram liver (5 min): 25.02 ± 3.70 % ID per gram
% ID per gram liver (30 min): 2.48 ± 0.52 % ID per gram
% ID per gram liver (1 hour): 1.19 ± 0.17 % ID per gram
% ID per gram lung (5 min): 6.01 ± 0.77 % ID per gram
% ID per gram lung (30 min): 1.34 ± 0.23 % ID per gram
% ID per gram lung (1 hour): 0.70 ± 0.26 % ID per gram
% ID per gram muscle (5 min): 1.94 ± 0.13 % ID per gram
% ID per gram muscle (30 min): 1.67 ± 0.14 % ID per gram
% ID per gram muscle (1 hour): 0.26 ± 0.07 % ID per gram
% ID per gram tumor (5 min): 2.82 ± 0.36 % ID per gram
% ID per gram tumor (30 min): 0.92 ± 0.10 % ID per gram
% ID per gram tumor (1 hour): 0.50 ± 0.09 % ID per gram

COc1cc2c(cc1OC)CN(CCNC(=O)c1cc(C)ccc1O[11CH3])CC2 [[^11C]9]
% ID per gram blood (5 min): 5.89 ± 0.29 % ID per gram
% ID per gram blood (30 min): 2.62 ± 0.22 % ID per gram
% ID per gram blood (1 hour): 1.98 ± 0.35 % ID per gram
% ID per gram brain (5 min): 1.63 ± 0.30 % ID per gram
% ID per gram brain (30 min): 0.11 ± 0.01 % ID per gram
% ID per gram brain (1 hour): 0.10 ± 0.04 % ID per gram
% ID per gram fat (5 min): 3.07 ± 0.40 % ID per gram
% ID per gram fat (30 min): 0.38 ± 0.12 % ID per gram
% ID per gram fat (1 hour): 0.26 ± 0.09 % ID per gram
% ID per gram heart (5 min): 2.89 ± 0.36 % ID per gram
% ID per gram heart (30 min): 0.76 ± 0.06 % ID per gram
% ID per gram heart (1 hour): 0.76 ± 0.46 % ID per gram
% ID per gram kidney (5 min): 44.07 ± 1.67 % ID per gram
% ID per gram kidney (30 min): 2.77 ± 0.42 % ID per gram
% ID per gram kidney (1 hour): 1.01 ± 0.12 % ID per gram
% ID per gram liver (5 min): 18.49 ± 2.87 % ID per gram
% ID per gram liver (30 min): 3.87 ± 0.67 % ID per gram
% ID per gram liver (1 hour): 1.70 ± 0.23 % ID per gram
% ID per gram lung (5 min): 5.69 ± 0.70 % ID per gram
% ID per gram lung (30 min): 1.42 ± 0.15 % ID per gram
% ID per gram lung (1 hour): 1.39 ± 0.67 % ID per gram
% ID per gram muscle (5 min): 1.75 ± 0.21 % ID per gram
% ID per gram muscle (30 min): 0.56 ± 0.19 % ID per gram
% ID per gram muscle (1 hour): 0.41 ± 0.22 % ID per gram
% ID per gram tumor (5 min): 3.10 ± 0.25 % ID per gram
% ID per gram tumor (30 min): 1.08 ± 0.08 % ID per gram
% ID per gram tumor (1 hour): 0.85 ± 0.14 % ID per gram

COc1cc2c(cc1OC)CN(CCNC(=O)c1cc([125I])ccc1OC)CC2 [[^125I]8i]
ratio Tumor:blood (5 min): 0.42 ± 0.03
ratio Tumor:fat (5 min): 0.84 ± 0.06
ratio Tumor:heart (5 min): 1.04 ± 0.08
ratio Tumor:lung (5 min): 0.50 ± 0.07
ratio Tumor:muscle (5 min): 2.00 ± 0.37
ratio Tumor:blood (30 min): 0.57 ± 0.12
ratio Tumor:fat (30 min): 1.49 ± 0.65
ratio Tumor:heart (30 min): 1.44 ± 0.18
ratio Tumor:lung (30 min): 0.98 ± 0.16
ratio Tumor:muscle (30 min): 2.06 ± 0.69
ratio Tumor:blood (1 hour): 0.62 ± 0.09
ratio Tumor:fat (1 hour): 1.93 ± 1.87
ratio Tumor:heart (1 hour): 1.81 ± 0.32
ratio Tumor:lung (1 hour): 0.91 ± 0.24
ratio Tumor:muscle (1 hour): 2.14 ± 0.99
ratio Tumor:blood (2 hour): 0.26 ± 0.08
ratio Tumor:fat (2 hour): 2.44 ± 0.77
ratio Tumor:heart (2 hour): 1.00 ± 0.27
ratio Tumor:lung (2 hour): 0.67 ± 0.14
ratio Tumor:muscle (2 hour): 2.17 ± 0.23
% ID per gram blood (5 min): 6.90 ± 1.29 % ID per gram
% ID per gram blood (30 min): 2.44 ± 0.65 % ID per gram
% ID per gram blood (1 hour): 1.17 ± 0.29 % ID per gram
% ID per gram blood (2 hour): 3.37 ± 1.23 % ID per gram
% ID per gram brain (5 min): 1.42 ± 0.33 % ID per gram
% ID per gram brain (30 min): 0.20 ± 0.06 % ID per gram
% ID per gram brain (1 hour): 0.06 ± 0.02 % ID per gram
% ID per gram brain (2 hour): 0.09 ± 0.03 % ID per gram
% ID per gram fat (5 min): 3.46 ± 0.59 % ID per gram
% ID per gram fat (30 min): 1.03 ± 0.44 % ID per gram
% ID per gram fat (1 hour): 0.77 ± 0.66 % ID per gram
% ID per gram fat (2 hour): 0.37 ± 0.13 % ID per gram
% ID per gram heart (5 min): 2.79 ± 0.35 % ID per gram
% ID per gram heart (30 min): 0.94 ± 0.19 % ID per gram
% ID per gram heart (1 hour): 0.40 ± 0.02 % ID per gram
% ID per gram heart (2 hour): 0.86 ± 0.26 % ID per gram
% ID per gram kidney (5 min): 54.77 ± 8.42 % ID per gram
% ID per gram kidney (30 min): 38.59 ± 2.05 % ID per gram
% ID per gram kidney (1 hour): 18.07 ± 2.07 % ID per gram
% ID per gram kidney (2 hour): 8.46 ± 1.26 % ID per gram
% ID per gram liver (5 min): 41.37 ± 7.23 % ID per gram
% ID per gram liver (30 min): 8.20 ± 1.05 % ID per gram
% ID per gram liver (1 hour): 2.87 ± 0.34 % ID per gram
% ID per gram liver (2 hour): 3.47 ± 1.05 % ID per gram
% ID per gram lung (5 min): 5.95 ± 1.30 % ID per gram
% ID per gram lung (30 min): 1.39 ± 0.29 % ID per gram
% ID per gram lung (1 hour): 0.81 ± 0.20 % ID per gram
% ID per gram lung (2 hour): 1.27 ± 0.37 % ID per gram
% ID per gram muscle (5 min): 1.47 ± 0.20 % ID per gram
% ID per gram muscle (30 min): 0.70 ± 0.25 % ID per gram
% ID per gram muscle (1 hour): 0.37 ± 0.23 % ID per gram
% ID per gram muscle (2 hour): 0.38 ± 0.06 % ID per gram
% ID per gram tumor (5 min): 2.91 ± 0.40 % ID per gram
% ID per gram tumor (30 min): 1.33 ± 0.13 % ID per gram
% ID per gram tumor (1 hour): 0.71 ± 0.12 % ID per gram
% ID per gram tumor (2 hour): 0.82 ± 0.09 % ID per gram
